Results published in patent EP1222242B1, “CLEANING AGENTS WHICH CONTAIN SURFACTANTS AND ENZYME INHIBITORS” (Henkel Kommanditgesellschaft auf Aktien, priority 1999, dated 2001).
“Also recorded” adds a separate entry of the source. Where a SMILES comes first, the peptide text is derived from it. The star is where a group is joined. Cbz = O=C(OCc1ccccc1)*

Legend:
[1] = test system: Desquamation des Stratum corneum; assay: Desquamation test on human skin biopsies (detergent-induced corneocyte shedding, corneocyte count); assay type: cell-based; details: for Desquamation der Humanhaut (Korneozyten-Abschuppung): result in words over the tested concentration range
Text: Aus frischen Humanhautexplantaten (aus Mammareduktion) wurden 8mm^2-große Hautstücke ausgestanzt und mit einer Mischung aus Detergentien (Na-Dodecylsulfat, N,N-Dimethyldodecylaminoxid) in Abwesenheit und in Gegenwart der Inhibitoren behandelt. Unter dem Einfluß der Detergentien wird eine verstärkte Abschuppung (Desquamation) der Homschicht (Stratum corneum) künstlich induziert, also die Ausbildung trockener Haut im Versuch nachgeahmt. Die Anzahl abgeschuppter Hornzellen (Korneozyten) wurde unter dem Mikroskop in einer Schilling-Zählkammer bestimmt. Eine Verringerung der Korneozytenzahl weist auf eine hemmende Wirkung der getesteten potentiellen Inhibitoren hin.
Die Inhibitoren wurden in den entsprechenden Konzentrationen (vgl. Tabellen der Beispiele 7-12) im Inkubationspuffer angesetzt. Dieser bestand aus 0,1 M TRIS-HCl-Puffer (pH 8) mit 0,1 Gew.% Na-Azid und den Detergenzien Na-Dodecylsulfat (0,2 mM) und N,N-Dimethyldodecylaminoxid (8 mM) sowie EDTA (5 mM). Diese Inkubationspufferlösungen mit variierender Konzentration des Inhibitors werden nachfolgend als Testlösungen bezeichnet.
Es wurden zwei Arten von Blindkontrollen durchgeführt, eine Positiv- und eine Negativkontrolle. Für die sogenannte Positivkontrolle wurde nur der Inkubationspuffer verwendet, d. h. ohne Zusatz der Inhibitoren. Für die sogenannte Negativkontrolle wurde eine 5 mM Lösung von EDTA in TRIS-HCl-Puffer eingesetzt, d. h. ohne Zusatz der Detergentien.
Pro Reaktionsansatz wurden 0,5 mL der jeweiligen Testlösung oder des für die Blindkontrollen verwendeten Puffergemisches in verschließbaren Reaktionsgefäßen vorgelegt. Alle Ansätze wurden in vierfacher Ausfertigung durchgeführt, um die Reproduzierbarkeit der Ergebnisse zu gewährleisten.
Die Humanhaut wurde nach der Explantation in einer trockenen, sterilen Petrischale auf Kühlakkus transportiert. Nach Entfernung des Unterhautfett- und des Bindegewebes wurden mit Hilfe von sterilen Stanzen 8 mm^2-große Hautstücke präpariert. Diese wurden 15-20 min in steriler, physiologischer NaCl (0,9 %) gewaschen, zu den Reaktionsansätzen gegeben (1 Hautstück/Reaktionsansatz) und 44 Stunden bei 37° C inkubiert.
Nach Beendigung der Inkubationsphase wurden die Reaktionsgefäße 30 Sekunden auf einem Vortex-Mixer geschüttelt, um noch lose anhaftende Komeozyten von den Hautstücken abzulösen. Die Hautstücke wurden entnommen und die verbleibende Dispersion wurde 8 Minuten bei 11.000U/min zentrifugiert, um die Korneozyten zu isolieren. Der detergenshaltige Überstand (0,4 mL) wurde verworfen und der Rückstand mit 0,4 ml Aqua dest. gewaschen. Nach nochmaligem Zentrifugieren wurde der Überstand (0.4 mL) wiederum verworfen, das verbleibende Zellpellet in 0,4 mL Aqua dest. aufgenommen und die abgelösten Korneozyten in einer Schillingzählkammer unter einem Lichtmikroskop ausgezählt.
Nachfolgende Tabellen geben eine Zusammenstellung über die Anzahl abgelöster Korneozyten: • nach Behandlung der Haut-Biopsien mit einem Detergentiengemisch in Abwesenheit der Inhibitoren (Positivkontrolle) • nach Behandlung der Haut-Biopsien mit einer Pufferlösung in Abwesenheit der Detergentien und Inhibitoren (Negativkontrolle) • nach Behandlung der Haut-Biopsien mit einem Detergentiengemisch, welches die Inhibitoren in variierender Konzentration enthält.

[2] = target: T1, Chymotrypsin (Bos taurus, UniProt P00766); assay: Chymotrypsin enzyme activity test (BTEE substrate, absorbance at 256 nm); assay type: biochemical, Rind; details: for Hemmung von Chymotrypsin: result in words over the tested concentration range
T1 construct: Chymotrypsin entsteht im Pankreas aus inaktiven Vorstufen, sogenannten Zymogenen, durch Einwirkung von Trypsin; purchased Sigma; host or cells: bovine pancreas (Rinderpankreas)
Text: (§1) Da die hauteigenen, am Desmosomenabbau beteiligten Proteasen nicht in ausreichender Menge zur Verfügung standen, dienten die Serin-Proteasen Trypsin und Chymotrypsin (Sigma) aus Rinderpankreas als Modellenzym, um die Hemmwirkung des erfindungsgemäß verwendeten Inhibitors N-CBZ-Gly-Pro-Phe-Pro-Leu, zu testen. Als Vergleich wurde auch das als t-PA-Inhibitor (tissue-type plasminogen activator) bekannte t-AMCHA [trans-4(Aminomethyl)-cyclohexancarbonsäure] getestet.
Der Nachweis der Chymotrypsin-Enzymaktivität erfolgt mit einer Modifikation analog zu den Angaben im Sigma Quality Control Test Procedure-Datenblatt für Chymotrypsin. Bei Ansätzen ohne Inhibitor wurden 1,42 mL Reagens A (80 mM Tris/HCl-Puffer, pH = 7,8; 25°C) zum Testansatz zugegeben. Bei Ansätzen mit Inhibitor wurden 1,32 mL Reagens A zum Testansatz zugegeben sowie 0,1 mL einer Lösung des entsprechenden Inhibitors in Reagens A (Konzentrationsreihe). Die Enzymaktivität wurde durch Umsetzung des Substrates N-Benzoyl-L-Tyrosinethylester (BTEE) zu N-Benzoyl-L-Tyrosin und Ethanol spektrophotometrisch bestimmt. Die Absorption des proteolytisch abgespaltenen N-Benzoyl-L-Tyrosins wird bei 256 nm gemessen.
(§2) Die Reaktionskinetiken wurden je 5 Minuten bei 25 °C detektiert, wobei der lineare Anstieg der Absorption (A) pro Zeiteinheit (t) ein Maß für die Aktivität des Enzyms (ΔA/Δt) ist. Die Aktivität des Enzyms in Abwesenheit eines Proteinase-Inhibitors, (ΔA1/Δt1 ), wurde auf 100% gesetzt. Unter analogen Bedingungen wurden die Aktivitäten in Gegenwart eines Inhibitors (ΔA2/Δt2) bestimmt. Die Hemmwirkung oder Minderung der Enzymaktivität entspricht dann: 100% - (ΔA2/Δt2 )/( ΔA1/Δt1)%.

[3] = target: T2, Trypsin (Bos taurus, UniProt P00760); assay: Trypsin enzyme activity test (BAPNA substrate, absorbance at 405 nm); assay type: biochemical, Rind; details: for Hemmung von Trypsin: result in words over the tested concentration range; for Hemmwirkung (Minderung der Trypsin-Aktivität): 25 °C
T2 construct: aus der vom Pankreas gebildeten Vorstufe Trypsinogen durch Abspaltung eines Hexapeptids entsteht; purchased Sigma; host or cells: bovine pancreas (Rinderpankreas)
T2 sequence (P00760 24-246): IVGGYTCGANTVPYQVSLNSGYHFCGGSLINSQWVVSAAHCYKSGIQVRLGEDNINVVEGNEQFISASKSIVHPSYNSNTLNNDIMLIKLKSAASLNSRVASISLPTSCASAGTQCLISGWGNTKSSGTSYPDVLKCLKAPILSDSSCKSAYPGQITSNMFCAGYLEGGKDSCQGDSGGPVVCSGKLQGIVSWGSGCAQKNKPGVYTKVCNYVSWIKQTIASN
Text: as §1
Auch der Nachweis der Trypsin-Enzymaktivität erfolgt mit einer Modifikation analog zu den Angaben im Sigma Quality Control Test Procedure-Datenblatt für Trypsin. Anstelle von Aprotinin (Reagens F) wurden hier die erfindungsgemäßen Inhibitoren eingesetzt. Hierfür wurde eine Konzentrationsreihe der Inhibitoren in Reagens E angesetzt. Die Enzymaktivität wurde durch Umsetzung des Substrates Nα-Benzoyl-DL-Arginin-p-Nitroanilin (BAPNA) zu Nα-Benzoyl-DL-Arginin und p-Nitroanilin spektrophotometrisch bestimmt. Die Absorption des proteolytisch abgespaltenen p-Nitroanilins wird bei 405 nm gemessen.
as §2

[4] = inhibitor 0,1 % (w/v), corneocyte count, positive control = 100 %, 44 h, 37° C
[5] = inhibitor 0,5 % (w/v), corneocyte count, positive control = 100 %, 44 h, 37° C
[6] = Homo sapiens, pH 8, inhibitor 0,1 % (w/v), corneocyte count, positive control = 100 %, 44 h, 37° C, read-out: Desquamation an Humanhaut ex vivo
[7] = inhibitor concentration 0,01 % (w/v), 25 °C
[8] = inhibitor concentration 0,001 % (w/v), 25 °C
[9] = inhibitor concentration 0,01 % (w/v)
[10] = inhibitor concentration 0,001 % (w/v)

Molecule | Desquamation an Humanhaut ex vivo [1, 4] | Desquamation an Humanhaut ex vivo [1, 5] | Hemmung von Chymotrypsin [2] | Hemmung von Trypsin [3] | activity at 0.1 % [1, 6] | Desquamation der Humanhaut (Korneozyten-Abschuppung) [1] | Hemmwirkung (Minderung der Chymotrypsin-Aktivität) [2, 7] | Hemmwirkung (Minderung der Chymotrypsin-Aktivität) [2, 8] | Hemmwirkung (Minderung der Trypsin-Aktivität) [3, 9] | Hemmwirkung (Minderung der Trypsin-Aktivität) [3, 10] | further results
NCCc1ccc(S(=O)(=O)F)cc1 [Pefabloc® SC, 4-(2-Aminoethyl)phenylsulfonylfluorid] | 34% | 11% | starke, konzentrationsabhängige Hemmung | starke, konzentrationsabhängige Hemmung |  |  |  |  |  |  | Abschuppung reduziert um ([1]; inhibitor 0,5 %, reduction versus positive control): ~90%; Hemmung von Chymotrypsin ([2]; listed as Pefabloc®): effektiver Inhibitor; Hemmung von Trypsin ([3]; listed as Pefabloc®): effektiver Inhibitor
OB(O)c1ccccc1 [Phenylboronsäure] |  |  | deutliche, konzentrationsabhängige Hemmung | nur mäßig beeinträchtigt | 60% | signifikant reduziert | 9% | keine Hemmung meßbar | Keine Hemmung meßbar | Keine Hemmung meßbar | activity at 0.05 % ([1]; Homo sapiens, pH 8, inhibitor 0,05 % (w/v), corneocyte count, positive control = 100 %, 44 h, 37° C, read-out: Desquamation an Humanhaut ex vivo): 89%; Reduktion der Abschuppung der Korneozyten ([1]; inhibitor 0,1 %, result in words): siginifikant reduzieren; Hemmwirkung (Minderung der Chymotrypsin-Aktivität) ([2]; inhibitor concentration 0,05 % (w/v), 25 °C): 45%; Hemmwirkung (Minderung der Trypsin-Aktivität) ([3]; inhibitor concentration 0,05 % (w/v)): 5%; Hemmwirkung (Minderung der Trypsin-Aktivität) ([3]; inhibitor concentration 0,005 % (w/v)): Keine Hemmung meßbar
CC(C)CC(NC(=O)C1CCCN1C(=O)C(Cc1ccccc1)NC(=O)C1CCCN1C(=O)CNC(=O)OCc1ccccc1)C(=O)O (stereo not drawn) [N-CBZ-GPFPL, N-CBZ-Gly-Pro-Phe-Pro-Leu] (Cbz-GPFPL-OH; configuration not given here) | 93% | 51% | spezifische Hemmung | nicht beeinträchtigt |  | signifikant reduziert |  |  |  |  | Reduktion der Abschuppung (Desquamation der Haut) ([1]; inhibitor 0,5 %, result in words): um die Hälfte reduziert; inhibition at 0.06 % ([2]; 5 min, pH 7.8, inhibitor concentration 0,06 % (w/v), 25 °C, read-out: Hemmwirkung (Minderung der Chymotrypsin-Aktivität)): 7%; inhibition at 0.33 % ([2]; 5 min, pH 7.8, inhibitor concentration 0,33 % (w/v), 25 °C, read-out: Hemmwirkung (Minderung der Chymotrypsin-Aktivität)): 27%; Hemmwirkung (Minderung der Chymotrypsin-Aktivität) ([2]; inhibitor concentration 0,03 % (w/v), 25 °C): 2%; Hemmwirkung (Minderung der Trypsin-Aktivität) ([3]; inhibitor concentration 0,03 % (w/v)): keine Hemmwirkung messbar; Hemmwirkung (Minderung der Trypsin-Aktivität) ([3]; inhibitor concentration 0,06 % (w/v)): -"-; Hemmwirkung (Minderung der Trypsin-Aktivität) ([3]; inhibitor concentration 0,33 % (w/v)): -"-
O=C(/C=C/c1ccc(O)c(O)c1)O[C@H](Cc1ccc(O)c(O)c1)C(=O)O [Rosmarinsäure] |  |  | gering | starke, konzentrationsabhängige Hemmung | 82.5% | konzentrationsabhängige Reduktion; also recorded: signifikant reduziert |  | keine Hemmwirkung messbar | 61% |  | activity at 0.5 % ([1]; Homo sapiens, pH 8, inhibitor 0,5 % (w/v), corneocyte count, positive control = 100 %, 44 h, 37° C, read-out: Desquamation an Humanhaut ex vivo): 60%; activity at 1 % ([1]; Homo sapiens, pH 8, inhibitor 1,0 % (w/v), corneocyte count, positive control = 100 %, 44 h, 37° C, read-out: Desquamation an Humanhaut ex vivo): 33.8%; Desquamation an Humanhaut ex vivo ([1]; inhibitor 1,0 % (w/v), corneocyte count, positive control = 100 %, 44 h, 37° C): 33,8%; Hemmwirkung (Minderung der Chymotrypsin-Aktivität) ([2]; inhibitor concentration 0,005 % (w/v), 25 °C): 2%; Hemmwirkung (Minderung der Chymotrypsin-Aktivität) ([2]; inhibitor concentration 0,0075 % (w/v), 25 °C): 7%
Borsäure | 50% |  | schwache Hemmung; also recorded: nur schwach | schwache Hemmung; also recorded: nur schwach |  | signifikant reduziert | keine Hemmwirkung meßbar | keine Hemmwirkung meßbar | Keine Hemmwirkung meßbar | Keine Hemmwirkung meßbar | Desquamation an Humanhaut ex vivo ([1]; inhibitor 0,01 % (w/v), corneocyte count, positive control = 100 %, 44 h, 37° C): 86%; Desquamation an Humanhaut ex vivo ([1]; inhibitor 0,2 % (w/v), corneocyte count, positive control = 100 %, 44 h, 37° C): 47%; Reduktion der Abschuppung der Korneozyten ([1]; inhibitor 0,2 %, result in words): halbieren; Hemmwirkung (Minderung der Chymotrypsin-Aktivität) ([2]; inhibitor concentration 0,1 % (w/v), 25 °C): 23%; Hemmwirkung (Minderung der Trypsin-Aktivität) ([3]; inhibitor concentration 0,1 % (w/v)): 6%; Hemmwirkung (Minderung der Trypsin-Aktivität) ([3]; inhibitor concentration 0,5 % (w/v)): 23%
